{
  "source": "paper PMC7029851",
  "about": "“Antibacterial activity of novel dual bacterial DNA type II topoisomerase inhibitors” (PLoS ONE, 2020)",
  "key": {"[1]": {"molecular_target": "T1, E. coli DNA gyrase (Escherichia coli, UniProt P0AES4)", "T1 construct": "purchased Inspiralis (Norwich, UK)", "T1 sequence (P0AES4 whole entry)": "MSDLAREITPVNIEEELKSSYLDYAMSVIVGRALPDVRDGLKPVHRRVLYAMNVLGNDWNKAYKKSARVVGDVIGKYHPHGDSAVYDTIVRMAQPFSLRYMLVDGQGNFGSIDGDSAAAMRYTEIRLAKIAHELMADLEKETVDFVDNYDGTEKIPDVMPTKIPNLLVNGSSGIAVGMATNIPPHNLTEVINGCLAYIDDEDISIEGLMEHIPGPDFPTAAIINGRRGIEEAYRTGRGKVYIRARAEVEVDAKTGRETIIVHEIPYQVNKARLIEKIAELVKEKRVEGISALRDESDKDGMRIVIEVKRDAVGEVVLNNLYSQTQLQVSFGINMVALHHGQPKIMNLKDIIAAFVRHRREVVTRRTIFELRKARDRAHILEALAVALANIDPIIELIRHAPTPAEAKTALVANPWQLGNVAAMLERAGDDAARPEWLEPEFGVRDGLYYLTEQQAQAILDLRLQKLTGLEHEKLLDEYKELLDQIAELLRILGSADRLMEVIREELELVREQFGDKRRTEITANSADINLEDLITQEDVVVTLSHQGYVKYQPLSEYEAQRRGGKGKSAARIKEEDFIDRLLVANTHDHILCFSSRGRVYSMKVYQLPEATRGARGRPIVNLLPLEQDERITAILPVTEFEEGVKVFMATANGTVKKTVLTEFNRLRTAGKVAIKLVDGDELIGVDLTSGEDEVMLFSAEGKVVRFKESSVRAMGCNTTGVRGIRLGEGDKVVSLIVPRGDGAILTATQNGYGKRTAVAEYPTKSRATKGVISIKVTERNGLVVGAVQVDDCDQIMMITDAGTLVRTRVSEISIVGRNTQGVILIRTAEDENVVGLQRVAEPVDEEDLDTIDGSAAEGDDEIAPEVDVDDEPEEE", "test": "E. coli DNA gyrase supercoiling gel assay", "type": "biochemical", "procedure": "(§1) S. aureus and E. coli DNA gyrase supercoiling and topo IV decatenation assay kits, as well as human topoisomerase II decatenation assay kits, were provided by Inspiralis (Norwich, UK). Assays were performed according to the manufacturer’s instructions. The compounds were serially diluted (1:3 dilutions starting from a 300 μM final concentration) and assayed in a reaction mixture to obtain concentration-response curves in two different replicate experiments. The final concentration of DMSO in the assays was 1% (v/v). The reactions were terminated by the addition of 30 μl chloroform/isoamyl alcohol (26:1) and 30 μl Stop Dye (40% sucrose, 100 mM Tris HCl pH 7.5, 1 mM EDTA, 0.5 μg/ml bromophenol blue), after which the samples were loaded onto a 1.0% TAE ([…]) gel that was then run at 80 V for 2 hours. DNA bands were visualized by ethidium bromide staining the gel for 10 minutes, which was then destained for 10 minutes in water and analysed using gel documentation equipment (Syngene, Cambridge, UK). The DNA in each band was quantitated using Syngene Gene Tools software. Raw gel data (fluorescent band volumes) were converted by the software to percentages of the control (the fully supercoiled or decatenated DNA band). […] The global curve fit non-linear regression tool was used to calculate the IC50 values. The results are expressed as the average values obtained after calculating the IC50 from each replicate run."}, "[2]": {"molecular_target": "T2, E. coli Topoisomerase IV (Escherichia coli, UniProt P0AFI2)", "T2 construct": "purchased Inspiralis (Norwich, UK)", "T2 sequence (P20083 whole entry)": "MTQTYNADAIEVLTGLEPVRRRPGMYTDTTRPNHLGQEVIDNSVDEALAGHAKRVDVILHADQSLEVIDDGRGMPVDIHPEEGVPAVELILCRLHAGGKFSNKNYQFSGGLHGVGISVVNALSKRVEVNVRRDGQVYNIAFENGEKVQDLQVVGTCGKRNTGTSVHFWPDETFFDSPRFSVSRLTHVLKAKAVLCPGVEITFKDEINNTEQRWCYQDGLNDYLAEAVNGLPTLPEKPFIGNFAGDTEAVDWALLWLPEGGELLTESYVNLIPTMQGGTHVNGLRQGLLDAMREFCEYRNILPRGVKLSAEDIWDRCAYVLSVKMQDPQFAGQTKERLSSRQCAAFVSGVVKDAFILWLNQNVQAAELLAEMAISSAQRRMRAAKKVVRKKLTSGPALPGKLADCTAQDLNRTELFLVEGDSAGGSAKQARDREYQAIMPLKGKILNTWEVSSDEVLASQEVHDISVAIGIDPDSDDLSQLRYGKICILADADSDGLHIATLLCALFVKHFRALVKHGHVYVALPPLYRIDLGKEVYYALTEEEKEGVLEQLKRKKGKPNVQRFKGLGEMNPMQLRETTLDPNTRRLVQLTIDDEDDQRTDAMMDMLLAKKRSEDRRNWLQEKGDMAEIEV", "T2 sequence (P0AFI2 whole entry)": "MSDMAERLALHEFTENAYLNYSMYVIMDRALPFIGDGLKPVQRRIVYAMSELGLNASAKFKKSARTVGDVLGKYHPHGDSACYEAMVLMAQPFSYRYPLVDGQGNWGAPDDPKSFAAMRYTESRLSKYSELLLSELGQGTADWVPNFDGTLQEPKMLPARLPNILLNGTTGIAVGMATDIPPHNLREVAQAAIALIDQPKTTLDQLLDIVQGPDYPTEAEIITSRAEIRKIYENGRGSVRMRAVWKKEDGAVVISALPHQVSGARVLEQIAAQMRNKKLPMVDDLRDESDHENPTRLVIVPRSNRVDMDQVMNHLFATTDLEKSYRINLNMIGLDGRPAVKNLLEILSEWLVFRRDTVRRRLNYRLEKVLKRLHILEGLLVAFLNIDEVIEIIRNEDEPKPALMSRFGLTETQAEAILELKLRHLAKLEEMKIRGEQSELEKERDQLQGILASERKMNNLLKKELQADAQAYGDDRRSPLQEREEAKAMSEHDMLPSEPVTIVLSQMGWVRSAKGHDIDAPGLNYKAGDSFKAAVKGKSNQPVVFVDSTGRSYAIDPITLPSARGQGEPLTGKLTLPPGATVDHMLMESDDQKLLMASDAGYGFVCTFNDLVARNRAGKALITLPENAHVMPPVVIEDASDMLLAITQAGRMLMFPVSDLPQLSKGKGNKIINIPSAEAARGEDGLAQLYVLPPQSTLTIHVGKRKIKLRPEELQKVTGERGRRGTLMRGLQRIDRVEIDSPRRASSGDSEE", "test": "E. coli topoisomerase IV decatenation gel assay", "type": "biochemical", "procedure": "as §1"}, "[3]": {"molecular_target": "T3, S. aureus DNA gyrase (Staphylococcus aureus, UniProt P20831)", "T3 construct": "purchased Inspiralis (Norwich, UK)", "test": "S. aureus DNA gyrase supercoiling gel assay", "type": "biochemical", "procedure": "as §1"}, "[4]": {"molecular_target": "T4, S. aureus Topoisomerase IV (Staphylococcus aureus, UniProt P0C1U9)", "T4 construct": "purchased Inspiralis (Norwich, UK)", "test": "S. aureus topoisomerase IV decatenation gel assay", "type": "biochemical", "procedure": "as §1"}, "[5]": {"molecular_target": "T5, Human Topoisomerase II (Homo sapiens, UniProt P11388)", "T5 construct": "purchased Inspiralis (Norwich, UK)", "T5 sequence (P11388 whole entry)": "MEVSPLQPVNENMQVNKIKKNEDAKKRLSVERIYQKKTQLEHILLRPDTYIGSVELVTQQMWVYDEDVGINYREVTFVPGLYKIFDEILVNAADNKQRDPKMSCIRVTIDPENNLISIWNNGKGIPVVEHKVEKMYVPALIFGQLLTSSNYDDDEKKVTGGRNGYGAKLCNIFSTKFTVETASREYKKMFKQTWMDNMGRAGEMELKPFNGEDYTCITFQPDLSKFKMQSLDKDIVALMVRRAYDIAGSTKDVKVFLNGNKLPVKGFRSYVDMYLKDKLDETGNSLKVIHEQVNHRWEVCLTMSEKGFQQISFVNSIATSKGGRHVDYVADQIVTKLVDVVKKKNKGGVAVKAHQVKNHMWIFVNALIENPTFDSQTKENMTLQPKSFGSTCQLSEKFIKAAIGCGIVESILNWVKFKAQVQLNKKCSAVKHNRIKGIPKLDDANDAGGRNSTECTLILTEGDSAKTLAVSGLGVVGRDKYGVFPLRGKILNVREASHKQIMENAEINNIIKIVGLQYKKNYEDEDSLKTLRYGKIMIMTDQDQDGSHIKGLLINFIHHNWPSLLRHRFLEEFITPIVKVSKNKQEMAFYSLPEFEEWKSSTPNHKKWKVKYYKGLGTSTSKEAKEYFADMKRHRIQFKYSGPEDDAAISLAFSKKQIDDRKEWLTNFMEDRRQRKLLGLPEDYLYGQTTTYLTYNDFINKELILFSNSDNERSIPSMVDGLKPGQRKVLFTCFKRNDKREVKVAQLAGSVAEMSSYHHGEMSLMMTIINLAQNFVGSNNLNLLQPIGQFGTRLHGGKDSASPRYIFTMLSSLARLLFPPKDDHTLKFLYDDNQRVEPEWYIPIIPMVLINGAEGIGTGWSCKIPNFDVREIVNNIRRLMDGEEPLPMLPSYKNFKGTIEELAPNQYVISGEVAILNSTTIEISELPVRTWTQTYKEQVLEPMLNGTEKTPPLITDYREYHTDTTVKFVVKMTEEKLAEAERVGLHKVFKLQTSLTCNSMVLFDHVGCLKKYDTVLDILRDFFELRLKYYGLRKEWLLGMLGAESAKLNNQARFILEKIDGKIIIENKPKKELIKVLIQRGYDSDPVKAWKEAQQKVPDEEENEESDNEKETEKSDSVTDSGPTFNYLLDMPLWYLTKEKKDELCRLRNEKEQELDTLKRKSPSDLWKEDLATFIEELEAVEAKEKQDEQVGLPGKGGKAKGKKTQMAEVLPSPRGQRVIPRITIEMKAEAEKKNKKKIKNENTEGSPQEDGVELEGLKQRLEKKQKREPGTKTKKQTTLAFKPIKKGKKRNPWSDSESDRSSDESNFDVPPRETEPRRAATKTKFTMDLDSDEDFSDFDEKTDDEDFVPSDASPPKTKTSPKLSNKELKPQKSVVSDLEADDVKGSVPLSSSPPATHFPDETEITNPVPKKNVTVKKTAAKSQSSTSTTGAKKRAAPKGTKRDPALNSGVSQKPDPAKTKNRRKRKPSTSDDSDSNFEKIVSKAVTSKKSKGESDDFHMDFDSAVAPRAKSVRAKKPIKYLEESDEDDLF", "test": "Human topoisomerase II decatenation gel assay", "type": "biochemical", "procedure": "as §1"}, "[6]": {"tested_on": "S. aureus ATCC 29213", "test": "MIC, broth microdilution", "type": "cell-based, Staphylococcus aureus", "procedure": "(§2) MICs were determined by the broth microdilution method (the agar dilution method was used only for N. gonorrhoeae) according to CLSI guidelines."}, "[7]": {"tested_on": "E. coli ATCC 25922", "test": "MIC, broth microdilution", "type": "cell-based", "details": "Escherichia coli, ATCC25922; E. coli ATCC 25922, ciprofloxacin-susceptible", "procedure": "as §2"}, "[8]": {"tested_on": "E. faecalis ATCC 29212", "test": "MIC, broth microdilution", "type": "cell-based", "details": "Enterococcus faecalis, ATCC29212; E. faecalis ATCC 29212, ciprofloxacin-susceptible", "procedure": "as §2"}, "[9]": {"tested_on": "H. influenzae ATCC 49766", "test": "MIC, broth microdilution", "type": "cell-based", "details": "Haemophilus influenzae, ATCC49766; H. influenzae ATCC 49766, ciprofloxacin-susceptible", "procedure": "as §2"}, "[10]": {"tested_on": "K. pneumoniae ATCC 700603", "test": "MIC, broth microdilution", "type": "cell-based", "details": "Klebsiella pneumoniae, ATCC700603; K. pneumoniae ATCC 700603, ciprofloxacin-susceptible", "procedure": "as §2"}, "[11]": {"tested_on": "P. aeruginosa ATCC 27853", "test": "MIC, broth microdilution", "type": "cell-based", "details": "Pseudomonas aeruginosa, ATCC27853; P. aeruginosa ATCC 27853, ciprofloxacin-susceptible", "procedure": "as §2"}, "[12]": {"tested_on": "S. aureus BAA-1720", "test": "MIC, broth microdilution", "type": "cell-based", "details": "Staphylococcus aureus, BAA1720; S. aureus BAA-1720, ciprofloxacin-resistant", "procedure": "as §2"}, "[13]": {"tested_on": "S. pneumoniae ATCC 49619", "test": "MIC, broth microdilution", "type": "cell-based", "details": "Streptococcus pneumoniae, ATCC49619; S. pneumoniae ATCC 49619, ciprofloxacin-susceptible", "procedure": "as §2"}, "[14]": {"tested_on": "N. gonorrhoeae ATCC 19424", "test": "MIC, agar dilution", "type": "cell-based", "details": "Neisseria gonorrhoeae, ATCC19424; N. gonorrhoeae ATCC 19424, ciprofloxacin-susceptible", "procedure": "as §2"}, "[15]": {"tested_on": "N. gonorrhoeae ATCC 49226", "test": "MIC, agar dilution", "type": "cell-based", "details": "Neisseria gonorrhoeae, ATCC49226; N. gonorrhoeae ATCC 49226, ciprofloxacin-susceptible", "procedure": "as §2"}, "[16]": {"tested_on": "N. gonorrhoeae WHO K", "test": "MIC, agar dilution", "type": "cell-based", "details": "Neisseria gonorrhoeae, ciprofloxacin-resistant", "procedure": "as §2"}, "[17]": {"tested_on": "N. gonorrhoeae WHO L", "test": "MIC, agar dilution", "type": "cell-based", "details": "Neisseria gonorrhoeae, ciprofloxacin-resistant", "procedure": "as §2"}, "[18]": {"tested_on": "N. gonorrhoeae WHO N", "test": "MIC, agar dilution", "type": "cell-based", "details": "Neisseria gonorrhoeae, ciprofloxacin-resistant", "procedure": "as §2"}, "[19]": {"tested_on": "E. coli TolC- mutant", "test": "microbe, parasite or virus in culture", "type": "cell-based", "details": "Escherichia coli", "procedure": "The bacterial reference strains used in this study were purchased from ATCC (American Type Culture Collection) via LGC Standards (Middlesex, UK). […] Clinical MDR isolates were provided by Aptuit, the IHMA Europa Sàrl repository (Epalinges, Switzerland) and the Statens Serum Institute (Copenhagen, Denmark).\nas §2"}, "[20]": {"tested_on": "E. faecalis clinical isolates (n = 12) vanA (6)/vanB (6)", "test": "MIC, multidrug-resistant clinical isolates", "type": "cell-based", "details": "Enterococcus faecalis", "method_in_brief": "(§3)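 CLSI-based testing; agar dilution used solely for N. gonorrhoeae, broth microdilution otherwise. MIC50 and MIC90 reported.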"}, "[21]": {"tested_on": "E. faecium clinical isolates (n = 12) vanA (6)/vanB (6)", "test": "MIC, multidrug-resistant clinical isolates", "type": "cell-based", "details": "Enterococcus faecium", "method_in_brief": "as §3"}, "[22]": {"tested_on": "N. gonorrhoeae clinical isolates (n = 38)", "test": "microbe, parasite or virus in culture", "type": "cell-based, Neisseria gonorrhoeae", "method_in_brief": "as §3"}},
  "note": "Where “and” joins values, the source holds several entries; their conditions need not be identical. Equal entries are not always repeated. Where two headings read alike, the source gives them in different places.",
  "data": [
    {"smiles": "Cl.O=c1oc2ccc(F)cc2c2[nH]c(CN[C@H]3CC[C@H](n4c(=O)ccc5ccc(F)cc54)CC3)cc12", "note": "[Compound 6, 8-fluoro-2-({[trans-4-(7-fluoro-2-oxoquinolin-1(2H)-yl)cyclohexyl]amino}methyl)[1]benzopyrano[4,3-b]pyrrol-4(1H)-one hydrochloride]", "values": [
      {"measurement": "IC50", "setting": "[1]; IC50 E. coli Gyrase Supercoiling (average), average of two replicate experiments", "value": 130, "unit": "nM"},
      {"measurement": "IC50", "setting": "[1]; IC50 E. coli gyrase Supercoiling, Assay 1, replicate Assay 1", "value": 130, "unit": "nM"},
      {"measurement": "IC50", "setting": "[1]; IC50 E. coli gyrase Supercoiling, Assay 2, replicate Assay 2", "value": 120, "unit": "nM"},
      {"measurement": "IC50", "setting": "[2]; IC50 E. coli Topoisomerase IV decatenation (average), average of two replicate experiments", "value": 250, "unit": "nM"},
      {"measurement": "IC50", "setting": "[2]; IC50 E. coli Topoisomerase IV decatenation, Assay 1, replicate Assay 1", "value": 270, "unit": "nM"},
      {"measurement": "IC50", "setting": "[2]; IC50 E. coli Topoisomerase IV decatenation, Assay 2, replicate Assay 2", "value": 220, "unit": "nM"},
      {"measurement": "IC50", "setting": "[3]; average of two replicate experiments, read-out: IC50 S. aureus Gyrase Supercoiling (average)", "value": 310, "unit": "nM"},
      {"measurement": "IC50", "setting": "[3]; replicate Assay 1, read-out: IC50 S.aureus gyrase Supercoiling, Assay 1", "value": 270, "unit": "nM"},
      {"measurement": "IC50", "setting": "[3]; replicate Assay 2, read-out: IC50 S.aureus gyrase Supercoiling, Assay 2", "value": 350, "unit": "nM"},
      {"measurement": "IC50", "setting": "[4]", "value": 290, "unit": "nM"},
      {"measurement": "IC50", "setting": "[4]; replicate Assay 1, read-out: IC50 S. aureus Topoisomerase IV decatenation, Assay 1", "value": 310, "unit": "nM"},
      {"measurement": "IC50", "setting": "[4]; replicate Assay 2, read-out: IC50 S. aureus Topoisomerase IV decatenation, Assay 2", "value": 260, "unit": "nM"},
      {"measurement": "IC50", "setting": "[5]; average of two replicate experiments, read-out: IC50 Human Topoisomerase II decatenation (average)", "value": "10100 nM and 10000 nM"},
      {"measurement": "IC50", "setting": "[5]; replicate Assay 1, read-out: IC50 Human Topoisomerase II (TopoII) decatenation, Assay 1", "value": 13000, "unit": "nM"},
      {"measurement": "IC50", "setting": "[5]; replicate Assay 2, read-out: IC50 Human Topoisomerase II (TopoII) decatenation, Assay 2", "value": 7300, "unit": "nM"},
      {"measurement": "MIC fold lower than that of ciprofloxacin", "setting": "[6]; S. aureus ATCC 29213", "value": "approximately 10 fold"},
      {"measurement": "MIC", "setting": "[6]; Staphylococcus aureus, ATCC29213, S. aureus ATCC 29213, ciprofloxacin-susceptible", "value": "≤ 0.06", "unit": "µg/mL"},
      {"measurement": "MIC", "setting": "[7]", "value": 0.25, "unit": "µg/mL"},
      {"measurement": "MIC", "setting": "[8]", "value": 0.25, "unit": "µg/mL"},
      {"measurement": "MIC", "setting": "[9]", "value": 0.5, "unit": "µg/mL"},
      {"measurement": "MIC", "setting": "[10]", "value": 8, "unit": "µg/mL"},
      {"measurement": "MIC", "setting": "[11]", "value": 4, "unit": "µg/mL"},
      {"measurement": "MIC", "setting": "[12]", "value": "≤ 0.06", "unit": "µg/mL"},
      {"measurement": "MIC", "setting": "[13]", "value": 0.12, "unit": "µg/mL"},
      {"measurement": "MIC", "setting": "[14]", "value": 0.03, "unit": "µg/mL"},
      {"measurement": "MIC", "setting": "[15]", "value": 0.03, "unit": "µg/mL"},
      {"measurement": "MIC", "setting": "[16]", "value": 0.06, "unit": "µg/mL"},
      {"measurement": "MIC", "setting": "[17]", "value": 0.03, "unit": "µg/mL"},
      {"measurement": "MIC", "setting": "[18]", "value": 0.03, "unit": "µg/mL"},
      {"measurement": "MIC", "setting": "[19]", "value": "≤ 0.016", "unit": "µg/mL"},
      {"measurement": "MIC50", "setting": "[20]", "value": 0.12, "unit": "µg/mL"},
      {"measurement": "MIC90", "setting": "[20]", "value": 0.12, "unit": "µg/mL"},
      {"measurement": "MIC", "setting": "[20]; read-out: MIC range", "value": "0.06 to 0.12", "unit": "µg/mL"},
      {"measurement": "MIC50", "setting": "[21]", "value": 0.25, "unit": "µg/mL"},
      {"measurement": "MIC90", "setting": "[21]", "value": 0.25, "unit": "µg/mL"},
      {"measurement": "MIC", "setting": "[21]; read-out: MIC range", "value": "0.06 to 1", "unit": "µg/mL"},
      {"measurement": "MIC range", "setting": "[22]", "value": "0.008 to 0.06", "unit": "µg/mL"},
      {"measurement": "MIC50", "setting": "[22]; Neisseria gonorrhoeae", "value": 0.03, "unit": "µg/mL"},
      {"measurement": "MIC90", "setting": "[22]; Neisseria gonorrhoeae", "value": 0.06, "unit": "µg/mL"}
    ]}
  ]
}
